Consider one molecule from article PMC11951083, “Highly Specific Miniaturized Fluorescent Monoacylglycerol Lipase Probes Enable Translational Research” (Journal of the American Chemical Society, 2025).

Assay [1] has as its target T1, MAGL (Homo sapiens, UniProt Q99685).
T1 sequence (Q99685 1-303): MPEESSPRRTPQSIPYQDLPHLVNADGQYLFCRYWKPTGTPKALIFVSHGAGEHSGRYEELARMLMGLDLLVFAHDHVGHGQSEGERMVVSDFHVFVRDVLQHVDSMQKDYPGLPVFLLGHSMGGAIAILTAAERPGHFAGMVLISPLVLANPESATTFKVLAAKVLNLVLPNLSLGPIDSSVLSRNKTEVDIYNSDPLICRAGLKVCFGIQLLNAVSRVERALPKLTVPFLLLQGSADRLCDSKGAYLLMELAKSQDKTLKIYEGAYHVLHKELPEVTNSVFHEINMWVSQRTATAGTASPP
Nature of the assay: Competitive FP binding assay with probe 5 as tracer. The conditions noted are these: 5 (20 nM), hMAGL (50 nM), irreversible inhibitors time-dependent.

In assay [2] the target is T1, MAGL. Nature of the assay: ABPP target occupancy in patient-derived PBMCs. It counts as cell-based. Also on record: native, human patient-derived peripheral blood monocytes (PBMCs); endogenous in cells; host or cells: human PBMCs from buffy coats. The method, then: minutes at RT. Subsequently, 0.5 µL MB064 (40x stock in DMSO) was added to the proteome sample, vortexed briefly, and incubated for 10 minutes at RT, after which 0.5 µL FP-Bodipy-FL (40x stock in DMSO) was added, vortexed briefly and incubated for 10 minutes at RT. The final volume was 20 - 20.5 µL (5 - 7.5% DMSO). The reaction was quenched by the addition of 7.5 µL of 4*Laemmli-buffer (final concentrations: 60 mM Tris (pH 6.8), 2% (w/v) SDS, 10% (v/v) glycerol, 1.25% (v/v) β-mercaptoethanol, 0.01% (v/v) bromophenol blue). 10 µL (14 µg protein) of the quenched reaction mixture was resolved on 10% acrylamide SDS-PAGE (180 V, 75 min). Fluorescence was measured using a Biorad ChemiDoc MP system (fluorescence channels Cy2, Cy3, Cy5). Gels were then stained using coomassie staining and imaged for protein loading control. Labeling of the respective proteins via MB064 and FP-BODIPY was visualized in two separate channels. […]
PBMCs were thawed, washed with 1 x PBS and equal amounts of cells were exposed to DMSO (D2650; Sigma-Aldrich) or MAGL inhibitor PF (PF-06795071) in DMSO for 30 min at room temperature with concentrations ranging from 1 nM to 1000 nM. […] Samples were then separated by SDS-PAGE and bands were detected ChemiDoc Imager (Bio-Rad Laboratories). […] Gels were imaged and protein bands were quantified using Image Lab software (Bio-Rad Laboratories).

For assay [3], the system named is MAGL-Nluc fusion protein. The experiment in a line: Competition nanoBRET assay in live HEK293 cells with probe 4a as tracer. Type of assay: cell-based. The settings on record: tracer 4a (100 nM), read-out: cellular IC50. The method, then:
In vitro MAGL Inhibition Assay
Compounds were profiled for MAGL inhibitory activity by determining the enzymatic activity by following the hydrolysis of the natural substrate 2-arachidonoylglycerol (2-AG), resulting in arachidonic acid, which can be followed by mass spectrometry. The 2-AG assay was carried out in 384 well assay plates (PP, Greiner Cat# 784201) in a total volume of 20 µL. Compound dilutions were made in 100% DMSO (VWR Chemicals 23500.297) in a polypropylene plate in 3-fold dilution steps to give a final concentration range in the assay from 12.5 µM to 0.8 pM. […] The activity of the compounds was calculated based on the ratio of intensities [arachidonic acid / d8-arachidonic acid]. […]
A HEK293A stable cell line expressing NanoLuc_MAGL was established at Roche and assigned as HEK293A_NanoLuc_MAGL clone #43. […] The introduction of competing compounds results in a dose -dependent decrease in NanoBRET™ energy transfer, which allows quantification of the intracellular affinity of the target protein for the test compound.
HEK293A_NanoLuc_MAGL clone #43 cells were cultured in DMEM (Gibco 31966) with 10% FBS and 800 ug/ml G418. […] After 2 hours of incubation, Nanoluciferase substrates and extracellular inhibitors were added following the manufacturer's protocol (Promega, #N2520), and the NanoBRET signaling were quantified with the Paradigm (Molecular Devices).
Background: BRET reads energy transfer from a luciferase to a nearby fluorophore.

Assay [4] concerns the target T1, MAGL. Also on record: method as in earlier work. The settings on record: Table S2, literature compounds; ref (1), (6)-(12) as indicated per compound; cited from earlier work.

A word on the IC50: it is the point on the concentration scale where inhibition reaches its midpoint. `O=C(O[C@H](CO)C(F)(F)F)N1C[C@@H]2C(c3ccn(-c4ccc(F)cc4)n3)[C@@H]2C1` (some centres unmarked) [PF-06795071] gave a Ki in assay [1] of 0.0128 ± 0.0039 µM. Besides, the “loss of MAGL activity” value was 40% in assay [2] (1 nM) and 93% in assay [2] (10 nM). In addition, the IC50 in assay [3] was 1.6 µM; in assay [4] it was 0.003 µM.
